Molecules are shown by their SMILES. Where a name gives a salt, the structure may show the parent alone. Read-outs that look alike come from different tables or passages of the source.

We go through three compounds from US9957253B2, “Triaminopyrimidine compounds useful for preventing or treating malaria” (MMV MEDICINES FOR MALARIA VENTURE, priority 2014, dated 2018).

The test system of data set [1] is chloroquine sensitive NF54 strain of P. falciparum. Nature of the data set: In vitro antiplasmodial activity (SYBR I), NF54 strain. To be noted: Plasmodium falciparum. It is filed as cell-based, Plasmodium falciparum. On the procedure: (§1) Measuring In Vitro Antiplasmodial Activity
(§2) The test samples were tested in duplicate on two separate occasions against chloroquine sensitive NF54 (MRA-1000, MR4, ATCC, Manassas, Va.) and chloroquine-resistant K1 strains of P. falciparum. A modified method of Trager and Jensen was employed to maintain continuous in vitro cultures of asexual blood stages of P. falciparum (Trageret al., 1976, Science, 193, 673-675). Quantitative assessment of antiplasmodial activity in vitro was determined using the SYBR I method as described earlier (Johnson et al., 2007, Antimicrob. Agents Chemother., 51, 1926-1933).
(§3) The percent inhibition with respect to the drug-free control was plotted against the logarithm of drug concentration. The growth inhibition curves were fitted by nonlinear regression using the sigmoidal dose-response (variable slope) formula to yield the concentration-response curves. […] Chloroquine diphosphate (CQ) (Sigma), artesunate (Sigma), and pyrimethamine were used as reference drugs in all experiments.

Data set [2] has as its system chloroquine-resistant K1 strain of P. falciparum. Nature of the data set: In vitro antiplasmodial activity (SYBR I), K1 strain. The format is cell-based, Plasmodium falciparum. To be noted: Plasmodium falciparum. On the procedure: as §1, §2, §3
Another data set concerns Plasmodium berghei. Put plainly: In vivo efficacy in the mouse malaria model (four day suppressive test). To be noted: P. berghei infected mice, growth of parasites in blood. On the procedure:
In Vivo Efficacy in the Mouse Malaria Model In vivo efficacy against blood stages was measured in mice infected with Plasmodium berghei after four (once daily) days of dosing by oral route. Detailed protocol for this four day suppressive test is described in Fidock et al 2004, Nature Reviews Drug Discovery (3), p 509.

The next data set has as its system hepatocytes. Put plainly: Metabolic stability assay (hepatocyte Clint), rat. It is filed as in vitro ADME. The following applies: 1 μM compound. The protocol:
Metabolic Stability Assay (Rat/Human Hepatocyte Clint)
Viability of cryopreserved hepatocytes was determined using trypan blue and the cell concentration was adjusted to 10^6 cells per mL with Leibovitz L-15 Buffer. 1 μM compound (in Acetonitrile; 0.01% DMSO) was incubated with 500 μL of hepatocytes (1 million cells per mL) in a NUNC plate. Reaction was stopped at different time points (0, 5, 15, 30, 60, 90 and 120 min) by addition of 3 volumes of chilled acetonitrile to 100 μL of reaction mixture and centrifuged at 4° C. for 15 min. Supernatants were analyzed using LC-MS/MS for substrate depletion.

Data set [3] in a line: Blood:Plasma (BP) ratio, rat. The format is in vitro ADME.
Data set [4] in a line: Blood:Plasma (BP) ratio, human. It is filed as in vitro ADME.
A short description of data set [5]: Plasma protein binding assay (equilibrium dialysis), rat. The format is in vitro ADME. The protocol: Plasma Protein Binding Assay
Protein binding is measured using the equilibrium dialysis technique. Compound is added to 10% plasma giving a concentration of 20 μM and dialysed with isotonic buffer for 18 hours at 37° C. The plasma and buffer solutions are analysed using generic LCUVMS and the first apparent binding constant for the compound derived. The binding constant is then used to determine the % free in 100% plasma.
(In general: In equilibrium dialysis only unbound substance equilibrates across the membrane.)

Data set [6] can be described thus: Prediction of hepatic blood clearance (well stirred model), rat.
Data set [7] has as its target T1, CYP3A4 (Homo sapiens, UniProt P08684). Nature of the data set: CYP inhibition assay, CYP 3A4. The format is in vitro ADME. To be noted: probe midazolam; human liver microsomes, substrate cocktail. On the procedure: (§4) This study was conducted using specific substrates for 5 major human CYP isozymes. These substrates were used as a cocktail (phenacetin, diclofenac, S-mephenytoin, bufuralol and midazolam which are predominantly metabolised by CYP 1A2, 2C9, 2C19, 2D6 and 3A4/5, respectively) at concentrations equivalent to their respective Km values. LC-MS-MS (MRM mode) was used to follow the formation of the CYP specific metabolites. A decrease in the formation of the metabolites in peak area to vehicle control was used to calculate the IC50 value. […] Test compound was used at 6 different concentrations ([…]) to estimate IC50.
(§5) The incubation was carried out in 96 deep well plates. Mixture of 180 μL of 20 mg/mL HLM and 90 μL of substrate cocktail solution was added to 15840 μL of phosphate buffer and 179 μL of this mixture was mixed with 1 μL of the test compound, inhibitor cocktail solution or vehicle in each well. The final concentration of DMSO:ACN in the assay mix was 0.3:0.7% v/v. The incubation plate was placed into the water bath and pre-warmed at 37° C. for 5 min before the reactions were started by the addition of 20 μL of 10 mmol/L NADPH solution in phosphate buffer. After the addition of NADPH, the incubation plate was incubated at 37° C. for a further 5 min. The reaction was quenched by the addition of 1 volume (200 μL) of cold ACN containing 3% formic acid and 40 nmol/L verapamil. The plates were kept on ice for 20 min and then centrifuged at 4000 rpm for 30 min to precipitate protein. The supernatant 180 μL was transferred to the analysis plate for LC/MS/MS analysis.
Target sequence in this assay (P08684 2-503): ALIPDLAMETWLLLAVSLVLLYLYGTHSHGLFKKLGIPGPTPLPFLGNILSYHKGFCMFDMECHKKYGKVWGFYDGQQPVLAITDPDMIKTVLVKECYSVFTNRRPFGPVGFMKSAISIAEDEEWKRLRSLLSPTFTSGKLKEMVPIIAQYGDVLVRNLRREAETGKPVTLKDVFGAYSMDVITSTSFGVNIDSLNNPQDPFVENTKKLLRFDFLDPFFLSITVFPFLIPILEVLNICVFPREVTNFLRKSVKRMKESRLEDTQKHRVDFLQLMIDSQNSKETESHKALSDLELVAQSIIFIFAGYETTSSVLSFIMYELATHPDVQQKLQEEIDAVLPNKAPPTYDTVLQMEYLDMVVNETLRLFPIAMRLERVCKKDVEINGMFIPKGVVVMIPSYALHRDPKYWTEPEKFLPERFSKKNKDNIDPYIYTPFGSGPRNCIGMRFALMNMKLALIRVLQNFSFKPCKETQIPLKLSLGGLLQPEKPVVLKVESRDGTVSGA
For orientation: Liver microsomes are vesicles of endoplasmic reticulum, rich in cytochrome P450 enzymes.

The next data set concerns the target T2, human CYP 2D6 (Homo sapiens, UniProt P10635).
T2 construct: Mixture of 180 μL of 20 mg/mL HLM and 90 μL of substrate cocktail solution; from tissue; host or cells: human liver microsomes (HLM)
Put plainly: CYP inhibition assay, CYP 2D6. The format is in vitro ADME. On the procedure: as §4, §5

The target of data set [8] is T3, human CYP 2C9 (Homo sapiens, UniProt P11712). Put plainly: CYP inhibition assay, CYP 2C9. The format is in vitro ADME. On the procedure:
as §4, §5

For data set [9], the target named is T1, CYP3A4. Nature of the data set: Time dependent CYP inhibition assay, CYP 3A4. It is filed as in vitro ADME.
Target sequence in this assay (P08684 whole entry): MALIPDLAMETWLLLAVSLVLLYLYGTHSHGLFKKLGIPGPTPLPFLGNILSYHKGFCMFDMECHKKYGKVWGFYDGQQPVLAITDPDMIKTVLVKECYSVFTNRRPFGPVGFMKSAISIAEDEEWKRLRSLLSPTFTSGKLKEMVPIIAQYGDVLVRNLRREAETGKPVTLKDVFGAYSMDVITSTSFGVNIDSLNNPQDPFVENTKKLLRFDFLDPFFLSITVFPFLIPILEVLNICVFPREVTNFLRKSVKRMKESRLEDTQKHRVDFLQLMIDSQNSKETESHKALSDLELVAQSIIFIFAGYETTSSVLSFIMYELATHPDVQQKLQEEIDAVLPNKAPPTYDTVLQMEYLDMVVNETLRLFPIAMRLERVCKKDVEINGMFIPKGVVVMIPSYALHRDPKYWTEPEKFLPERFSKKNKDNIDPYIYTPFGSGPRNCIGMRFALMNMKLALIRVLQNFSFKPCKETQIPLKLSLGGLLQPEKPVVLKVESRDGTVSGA
Data set [10] deals with T3, human CYP 2C9. Put plainly: Time dependent CYP inhibition assay, CYP 2C9. It is filed as in vitro ADME.
The next data set has as its target T4, human CYP 2C19 (Homo sapiens, UniProt P33261).
T4 construct: Mixture of 180 μL of 20 mg/mL HLM and 90 μL of substrate cocktail solution; from tissue; host or cells: human liver microsomes (HLM)
Put plainly: Time dependent CYP inhibition assay, CYP 2C19. It is filed as in vitro ADME.

[11] abbreviates: 3 mg/kg oral once daily for four days.
Setting [12] is: 10 mg/kg oral once daily for four days.
Setting [13] is: 30 mg/kg oral once daily for four days.
Setting [14] is: NF54 strain, chloroquine sensitive, read-out: Pf IC50—NF54.
Setting [15] is: K1 strain, chloroquine-resistant, read-out: Pf IC50—K1.
[16] abbreviates: human liver microsomes, substrate cocktail, read-out: IC50 CYP 2D6.
[17] abbreviates: human liver microsomes, substrate cocktail, read-out: IC50 CYP 2C9.

T4 sequence (P33261 whole entry): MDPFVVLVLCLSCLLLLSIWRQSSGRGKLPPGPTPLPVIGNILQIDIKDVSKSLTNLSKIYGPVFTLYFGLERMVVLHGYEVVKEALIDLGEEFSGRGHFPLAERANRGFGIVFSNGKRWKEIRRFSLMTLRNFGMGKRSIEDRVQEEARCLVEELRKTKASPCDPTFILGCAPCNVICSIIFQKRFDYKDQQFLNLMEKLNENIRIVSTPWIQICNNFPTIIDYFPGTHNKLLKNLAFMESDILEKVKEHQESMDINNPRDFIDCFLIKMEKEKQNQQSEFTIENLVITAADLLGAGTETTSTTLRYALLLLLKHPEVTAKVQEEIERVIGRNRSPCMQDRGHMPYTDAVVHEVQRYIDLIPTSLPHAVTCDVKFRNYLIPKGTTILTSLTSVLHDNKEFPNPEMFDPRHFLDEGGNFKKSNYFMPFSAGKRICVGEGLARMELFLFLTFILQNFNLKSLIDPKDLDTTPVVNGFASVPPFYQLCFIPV
T3 sequence (P11712 whole entry): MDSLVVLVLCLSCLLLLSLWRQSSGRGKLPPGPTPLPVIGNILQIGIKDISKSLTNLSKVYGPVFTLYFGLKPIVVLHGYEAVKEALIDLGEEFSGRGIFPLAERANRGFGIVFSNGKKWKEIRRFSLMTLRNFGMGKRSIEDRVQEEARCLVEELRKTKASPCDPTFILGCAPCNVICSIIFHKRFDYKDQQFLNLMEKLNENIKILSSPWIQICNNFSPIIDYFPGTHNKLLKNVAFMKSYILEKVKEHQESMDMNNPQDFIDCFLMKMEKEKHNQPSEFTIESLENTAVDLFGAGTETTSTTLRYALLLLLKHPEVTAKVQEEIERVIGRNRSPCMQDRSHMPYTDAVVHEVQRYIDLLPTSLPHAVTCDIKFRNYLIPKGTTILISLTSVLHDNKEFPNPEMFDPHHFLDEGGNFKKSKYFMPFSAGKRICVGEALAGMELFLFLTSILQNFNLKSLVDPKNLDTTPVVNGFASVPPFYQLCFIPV
T2 sequence (P10635 whole entry): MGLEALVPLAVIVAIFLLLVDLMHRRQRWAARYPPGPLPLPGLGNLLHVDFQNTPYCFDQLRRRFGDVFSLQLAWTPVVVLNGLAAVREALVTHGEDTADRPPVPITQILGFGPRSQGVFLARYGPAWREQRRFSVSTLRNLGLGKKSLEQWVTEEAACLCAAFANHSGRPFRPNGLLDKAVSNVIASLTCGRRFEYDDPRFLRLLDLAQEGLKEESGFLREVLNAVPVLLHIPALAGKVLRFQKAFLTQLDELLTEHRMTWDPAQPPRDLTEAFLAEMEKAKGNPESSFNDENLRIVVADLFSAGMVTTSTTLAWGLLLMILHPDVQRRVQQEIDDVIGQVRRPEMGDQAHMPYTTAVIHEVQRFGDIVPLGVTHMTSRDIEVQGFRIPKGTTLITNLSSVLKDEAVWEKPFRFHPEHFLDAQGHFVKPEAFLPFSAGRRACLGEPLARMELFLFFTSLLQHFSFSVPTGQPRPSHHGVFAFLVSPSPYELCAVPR

As usually defined, the IC50 is the concentration that gives 50% inhibition. As usually defined, the % Inhibition is the drop in the measured response relative to a control, in per cent. The low end stands for little suppression, the high end for strong suppression. On to `CCc1cc(Nc2ncc(N3CCN[C@H](C)C3)c(Nc3cc(C)n(C)n3)n2)nc(C)c1F` [Example 7, (R)—N4-(1,5-dimethyl-1H-pyrazol-3-yl)-N2-(4-ethyl-5-fluoro-6-methylpyridin-2-yl)-5-(3-methylpiperazin-1-yl)pyrimidine-2,4-diamine dihydrochloride], for which the IC50 in data set [1] (NF54, read-out: Pf IC50—NF54) is 0.027 µM; in data set [2] (K1, read-out: Pf IC50—K1), 0.045 µM; at human CYP 2D6, greater than 30 µM; against human CYP 2C9 [8], greater than 30 µM; against CYP3A4 [9], greater than 56 µM; at human CYP 2C9 [10], greater than 56 µM. The same compound yielded an IC50 on human CYP 2C19 greater than 56 µM. Moreover, the “% Inhibition” value in the data set with Plasmodium berghei (setting [11]) was 6%; in the data set on Plasmodium berghei (setting [12]), 28%; with Plasmodium berghei (setting [13]), 100%. Moreover, the “Hep. Clint” value with hepatocytes is 5.6 μl/min/1E6. Further, the BP ratio amounted to 2.2 in data set [3] and 1.3 in [4]. Further, the Fup in [5] is 0.06. Also, the “Predicted CLh blood” value in data set [6] was 1.452 L/h/kg. The IC50 at 5 min at CYP3A4 [7] is greater than 30 µM.

On to `Cc1nc(Nc2ncc(N3CCN[C@H](C)C3)c(Nc3cnn(C)n3)n2)cc(C2CC2)c1Cl` [Example 10, (R)—N2-(5-chloro-4-cyclopropyl-6-methylpyridin-2-yl)-N4-(2-methyl-2H-1,2,3-triazol-4-yl)-5-(3-methylpiperazin-1-yl)pyrimidine-2,4-diamine dihydochloride], for which the IC50 in [1] (setting [14]) was 0.013 µM; in [2] (setting [15]), 0.019 µM; at human CYP 2D6 (setting [16]), greater than 30 µM; on human CYP 2C9 [8] (setting [17]), greater than 30 µM; against CYP3A4 [9], greater than 56 µM; on human CYP 2C9 [10], greater than 56 µM. The IC50 at human CYP 2C19 was greater than 56 µM. Moreover, the “% Inhibition” value in the data set with Plasmodium berghei (setting [12]) amounted to 60%; in the data set on Plasmodium berghei (15 mg/kg oral once daily for four days), 75%; in the data set on Plasmodium berghei (setting [13]) it was 100%. The “Hep. Clint” value with hepatocytes was 8.3 μl/min/1E6. Further, the BP ratio in data set [3] turned out to be 1.7; in data set [4], 1.8. In data set [5], this compound registered a Fup of 0.04. Moreover, the “Predicted CLh blood” value in data set [6] was 0.966 L/h/kg. At CYP3A4 [7], this compound had an IC50 at 5 min greater than 30 µM.

Turning to `Cc1nc(Nc2ncc(N3CCN(C)[C@H](C)C3)c(Nc3cc(C)n(C)n3)n2)cc(C2CC2)c1F` [Example 13, (R)—N2-(4-cyclopropyl-5-fluoro-6-methylpyridin-2-yl)-N4-(1,5-dimethyl-1H-pyrazol-3-yl)-5-(3,4-dimethylpiperazin-1-yl)pyrimidine-2,4-diamine], the IC50 in data set [1] (setting [14]) was 0.009 µM; in data set [2] (setting [15]), 0.015 µM; at human CYP 2D6 (setting [16]), greater than 30 µM; on human CYP 2C9 [8] (setting [17]), greater than 30 µM; against CYP3A4 [9], greater than 56 µM; on human CYP 2C9 [10] it was greater than 56 µM. The IC50 against human CYP 2C19 is greater than 56 µM. Moreover, the “% Inhibition” value in the data set on Plasmodium berghei (setting [11]) was found to be 0%; with Plasmodium berghei (setting [12]), 42%; with Plasmodium berghei (setting [13]), 100%. Besides, the “Hep. Clint” value with hepatocytes amounted to 11.3 μl/min/1E6. The BP ratio in [3] is on record as 1.06; in data set [4] it was 1.1. For the same compound, the Fup in [5] is 0.04. Also, in [6], the “Predicted CLh blood” value was 1.128 L/h/kg. This compound yielded an IC50 at 5 min at CYP3A4 [7] greater than 30 µM.
